Laboratory results published in patent US9884863B2, “STAT3 inhibitor” (Board of Regents, The University of Texas System, priority 2013, dated 2018).

Assays:
[1] = system: STAT3 and pSTAT3 in MDA-MB-231 xenograft tumors; assay: IHC and Western blot of xenograft tumors; type: in vivo, mice
From the text: Immunohistochemistry (IHC): Paraffin blocks of the collected tissue were sectioned into 4 μm thickness and stained with H&E as a reference. All slides were subjected to phospho-STAT3 (Y705) IHC with ABC staining method. Rabbit or mouse IgG ABC kit was purchased from Vector Laboratories (Burlingame, Calif., USA) and ABC staining reagents were purchased from Sigma Aldrich (Louis, Mo., USA). PBS was used instead of primary antibody as a negative control.

[2] = system: STAT3 and pSTAT3 in MDA-MB-453 and BT474 cells; assay: Transient transfection of STAT3 expression vector and Western blot; type: cell-based, human; conditions: 10 μM, 12 h
Description: Transient Transfection of STAT3 Expression Vector: Transient transfection was conducted using Fugene HD reagent (Invitrogen, N.Y., USA) per manufacturer's instructions. Briefly, MDA-MB-453 and BT474 cells were seeded in 100 mm^2 culture dishes and incubated overnight. Culture medium was changed to FBS free media 1 h prior to transfection, and 15 μg STAT3C over-expression vector (#24983, Addgene, Mass., USA), 45 μL Fugene HD together with 879 μL opti-MEM (Invitrogen, N.Y.) was added into each dish. Eight hours after transfection, the media was removed and changed to regular media containing 10% FBS. […] After 12 h treatment, total cell lysates were collected and proceeded to Western blot analysis.

[3] = system: STAT family, STAT3-dependent genes and JAKs in MDA-MB-468 cells; assay: Western blot analysis, MDA-MB-468 cells; type: cell-based, human
MDA-MB-231 cells = assay: Apoptosis assay (annexin V, flow cytometry); type: cell-based, human; conditions: MDA-MB-231
Description: Cell Cycle Assay and Apoptosis Assay: Cell cycle and apoptosis kits (#MCH100106 and #MCH100105, Millipore, Mass.) were used. […] 24 and 48 h after drug treatment, both adherent and floating cells were collected, washed once with PBS and fixed in cold ethanol for at least 4 h before cell cycle analysis. The fixed cells were then washed twice with PBS and resuspended in 200 μL cell cycle detection reagent, incubated for 30 minutes in dark at room temperature. Cell cycle distribution was measured by the Muse Cell Analyzer with Muse™ Cell Cycle. Similarly, MDA-MB-231 cells with the same treatments were prepared for apoptosis assay. After washing with PBS, resuspended cells were incubated with 100 μL PBS containing 1% BSA and 100 μL Annexin V and dead cell detection reagent in dark for 20 minutes at room temperature. Apoptosis was measured immediately using the Muse Cell Analyzer with the Muse™ Apoptosis Program.

[4] = system: STAT family, STAT3-dependent genes and JAKs in MDA-MB-231 cells; assay: Western blot analysis, MDA-MB-231 cells; type: cell-based, human
Description: Blocking STAT3 signaling in many different tumor cells leads to induce growth arrest and apoptosis (Turkson, J. et al., 2000; Bromberg, J., 2002; Zhang, X. et al., 2012).
Western Blot Analysis. Protein levels were determined by Western blot using the previously described methods (Shen, Q. et al., 2008). Total cell lysates were prepared from MDA-MB-231 cells. Protein concentrations were measured using the BCA Protein Assay Reagent (Pierce, Rockford, Ill., USA). Equal amounts of total cellular protein extract (40 μg) were resuspended in denaturing sample loading buffer (0.5 M Tris-HCl, pH 6.8, 10% SDS, 0.1% bromophenol blue, and 20% glycerol), separated by electrophoresis on a 10% polyacrylamide SDS-PAGE gel and then electrophoretically transferred to a nitrocellulose membrane (Thermo Scientific, Ill., USA) at 100 Volts for 1 h at 4° C. The membrane was then incubated in a blocking solution containing 5% non-fat milk and 1% Tween 20 in TBS for 1 h. The membrane was then incubated with antibodies specific for: phospho-STAT3-pY705 (1:3000, Epitomics, #2236-1), STAT3 (1:2000, Cell Signaling, #4904), Caspase-3-cleaved (1:2000, Epitomics, #1476-1), Cyclin D1 (1:10000, Epitomics, #2261-1) and β-actin (1:10000, Sigma, clone AC-15). An anti-rabbit or anti-mouse secondary antibody (Amersham, Piscataway, N.J.) was used at 1:4000 dilution. The Western blotted bands were visualized using ECL procedure according to the manufacturer's instructions (Amersham).

[5] = system: pSTAT3 nuclear translocation in MDA-MB-231 cells; assay: IL-6 induction of STAT3 phosphorylation and nuclear translocation; type: cell-based, human; conditions: treatment for 6 h, IL-6 1 h
Description: IL-6 Induction of STAT3 Phosphorylation and Nuclear Translocation: A total of 5×10^4 MDA-MB-231 cells were seeded into each well of the chamber slides (#154526, Thermo, N.Y.) and cultured overnight. Cells were starved up to 24 h prior to the designated drug treatment. […] After stimulation with IL-6 (50 ng/mL) for 1 h, the culture media were aspirated and followed by DPBS (Gibco, Auckland, NZ) wash twice. Then cells were fixed with 4% paraformaldehyde for 10 min, followed by permeabilization using 100% methanol, blocking buffer for 1 h at room temperature, and incubation with primary antibodies at 4° C. overnight. After incubation with secondary antibody for 1 h, slides were stained with DAPI (Invitrogen, CA) for 5 min, and then anti-fade mounting media added to each chamber. Cells were then analyzed under immunofluorescence microscope with laser-scanning confocal imaging system (Nikon TS100F).

[6] = system: MDA-MB-231 and MDA-MB-468 cells; assay: Colony formation assay; type: cell-based, human; conditions: 15 days, starting at 0.625 μM
Description: Colony Formation Assay: MDA-MB-468 and MDA-MB-231 cells were seeded in 6-well plates with a density of 800-3000 cells/well, respectively. […] The culture media with the compounds were changed every 72 h. After two weeks, the wells were washed twice with PBS buffer and 2 mL of 0.01% crystal violet staining buffer was added and incubated for 10 min. The wells were then washed with PBS for 5 min for three times, and allowed to dry. Photographs were then taken and the density of the entire culture well area was digitally measured using the GelCount™ instrument (Oxford Optronix, UK). Experiments were performed in triplicate and the density data were analyzed with one-way ANOVA using GraphPad Prizm 6 software. Error bars represent standard deviation.

[7] = system: MDA-MB-231 xenograft tumors; assay: MDA-MB-231 xenograft tumor growth in nude mice; type: in vivo; conditions: oral gavage daily for 14 days
STAT3 = STAT3 (Homo sapiens, UniProt P40763); conditions: Schust et al. 2006; read-out: IC50, binding to STAT3; cited from earlier work
Sequence of STAT3 (P40763 whole entry, species assumed): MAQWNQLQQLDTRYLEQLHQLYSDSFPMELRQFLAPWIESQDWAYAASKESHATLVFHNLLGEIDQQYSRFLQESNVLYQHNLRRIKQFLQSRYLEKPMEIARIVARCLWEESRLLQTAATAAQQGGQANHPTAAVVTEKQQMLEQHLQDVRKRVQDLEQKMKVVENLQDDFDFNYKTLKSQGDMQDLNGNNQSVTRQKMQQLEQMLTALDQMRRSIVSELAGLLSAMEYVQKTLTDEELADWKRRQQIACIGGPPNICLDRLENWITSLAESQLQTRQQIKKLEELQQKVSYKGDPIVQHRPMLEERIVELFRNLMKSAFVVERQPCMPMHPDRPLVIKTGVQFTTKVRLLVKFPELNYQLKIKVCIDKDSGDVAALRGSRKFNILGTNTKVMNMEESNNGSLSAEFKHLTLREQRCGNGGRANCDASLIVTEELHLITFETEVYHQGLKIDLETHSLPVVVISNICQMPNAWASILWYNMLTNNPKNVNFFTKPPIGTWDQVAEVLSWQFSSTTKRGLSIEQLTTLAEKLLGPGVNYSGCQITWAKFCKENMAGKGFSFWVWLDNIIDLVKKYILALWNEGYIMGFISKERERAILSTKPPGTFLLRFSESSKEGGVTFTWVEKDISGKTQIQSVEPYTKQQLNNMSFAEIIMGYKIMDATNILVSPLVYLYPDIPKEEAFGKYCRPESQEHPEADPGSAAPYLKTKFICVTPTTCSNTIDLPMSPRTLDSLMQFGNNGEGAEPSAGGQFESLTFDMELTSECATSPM

## NCCOc1ccc(Cl)cc1C(=O)Nc1ccc([N+](=O)[O-])cc1Cl [HJC0152]
[1]; 25 mg/kg oral
  pSTAT3 (Y705) level in xenograft tumors, IHC: significant effect on reducing pSTAT3 level
[1]; oral gavage 14 days
  STAT3 and pSTAT3 (Y705 and S727) in tumor lysates, Western blot: decreased
[2]
  STAT3 and pSTAT3 levels after forced expression of STAT3: significantly decreased
[3]; MDA-MB-468
  JAK3: minimal alterations
  STAT1: minimal changes
  cleaved PARP1: induced from 6 h
[3]; MDA-MB-468, 12 h, recovered at 24 h
  JAK2 and pJAK2: transient down-regulation
[3]; MDA-MB-468, 12 h and 24 h
  JAK1 protein: decreased level
[3]; MDA-MB-468, from 6 h
  Bcl-2 and cyclin D1: decreased level
[3]; MDA-MB-468, from 6 h, 10 μM
  pSTAT1 at Y701 and S727: down-regulation
[3]; MDA-MB-468, from 12 h, 5 μM
  STAT5 and pSTAT5 (Y694): decreased level
[3]; MDA-MB-468, starting at 3 h
  STAT3 and pSTAT3: down-regulation
MDA-MB-231 cells
  apoptosis at 1 μM: 8%
  apoptosis at 10 μM: 23%
[4]; MDA-MB-231
  JAK1 or pJAK1 (Y1022): no changes
  Mcl-1: decrease starting from 6 h
  STAT1 and active STAT1 at Y701 or S727: no significant changes
  STAT2, STAT4 and STAT6: minimal changes
  cleaved caspase 3: induced at 12 h
  pSTAT3 at S727 residue: continuous inhibition to 24 h
[4]; MDA-MB-231, 5 and 10 μM
  STAT5: transient decrease at 6 h
[4]; MDA-MB-231, 12 and 24 h, 5 and 10 μM
  pSTAT5: moderate decrease
[4]; MDA-MB-231, 6 h, recovered at 24 h
  pSTAT3 at Y705 residue: significantly decreased
[4]; MDA-MB-231, 24 h
  Bcl-xl protein and cyclin D1: not altered
[4]; MDA-MB-231, from 6 h, 5 μM and 10 μM
  JAK2 and pJAK2 (Y1007 & Y1008): apparent down-regulation
[5]
  IL-6 induced nuclear translocation of pSTAT3: blocked
[6]
  colony formation: significant suppression of colony formation
[7]
  reduction in tumor growth, 25 mg/kg: approximately 80%

## O=[N+]([O-])c1ccc2c(c1)S(=O)(=O)C=C2 [Stattic]
STAT3
  IC50: 5.1 µM
